In US9150865B2 (priority 2010, dated 2015):
“Also recorded” adds a separate entry of the source.

Tests used:
ADAM10 [1] = biological target: T1, ADAM10 (Homo sapiens, UniProt O14672); assay type: cell-based
S. aureus strain Newman = test system: S. aureus strain Newman; design: species or system Staphylococcus aureus; details: in vivo, ip
A431 keratinocytes = assay type: cell-based
A549 cells = assay type: cell-based, human
ADAM10 [2] = biological target: T1, ADAM10; assay type: cell-based; remark: listed apart in the source
C57BL/6J mice = details: mouse, in vivo
BALB/c mice = details: mouse, in vivo
rabbit red cells = assay type: cell-based
ADAM10 [3] = biological target: T1, ADAM10; assay type: cell-based; remark: listed apart in the source
ADAM10 [4] = biological target: T1, ADAM10; assay type: cell-based; remark: listed apart in the source
S. aureus Newman = test system: S. aureus Newman; design: species or system Staphylococcus aureus; details: in vivo
S. aureus USA300/LAC = test system: S. aureus USA300/LAC; design: species or system Staphylococcus aureus; details: in vivo
[5] = test system: Human pulmonary artery endothelial cells (HPAECs); assay type: cell-based
ADAM10 [6] = biological target: T1, ADAM10; assay type: cell-based; remark: listed apart in the source
ADAM10 [7] = details: cited from earlier work
ADAM10 [8] = biological target: T1, ADAM10; assay type: cell-based; remark: listed apart in the source

T1 sequence (O14672 214-748 limits assumed): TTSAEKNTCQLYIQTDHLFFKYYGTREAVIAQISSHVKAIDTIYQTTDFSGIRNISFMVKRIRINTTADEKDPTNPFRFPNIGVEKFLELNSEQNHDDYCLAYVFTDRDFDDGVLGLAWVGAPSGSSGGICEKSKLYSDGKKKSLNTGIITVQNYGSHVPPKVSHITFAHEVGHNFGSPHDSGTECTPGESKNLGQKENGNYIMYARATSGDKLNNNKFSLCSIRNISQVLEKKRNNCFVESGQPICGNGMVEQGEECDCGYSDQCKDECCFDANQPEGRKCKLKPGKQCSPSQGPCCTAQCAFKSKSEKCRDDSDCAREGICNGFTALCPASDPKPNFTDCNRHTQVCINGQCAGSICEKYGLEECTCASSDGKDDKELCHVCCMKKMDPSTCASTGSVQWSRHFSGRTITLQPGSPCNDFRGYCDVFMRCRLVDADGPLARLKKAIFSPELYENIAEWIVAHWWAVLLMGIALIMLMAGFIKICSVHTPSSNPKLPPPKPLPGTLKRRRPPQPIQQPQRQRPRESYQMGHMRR

Compound: CNC(=O)[C@@H](NC(=O)[C@H](CCCc1ccccc1)[C@H](C)N(O)C=O)C(C)(C)C [GI254023X]
- full-length E-cadherin expression upon toxin treatment (ADAM10 [1]): preservation of full-length E-cadherin expression
- protection against lethal S. aureus pneumonia (mortality curves) (S. aureus strain Newman): protected from rapidly lethal S. aureus pneumonia, displaying an increase in time to death and survival among some animals; also recorded: protected against lethal pneumonia
- epithelial barrier function upon toxin treatment (ECIS) (A431 keratinocytes): preservation of full-length E-cadherin expression and epithelial barrier function
- toxin binding and oligomerization on the surface of A549 cells (A549 cells): markedly impaired toxin binding and subsequent oligomerization; also recorded: impaired toxin binding and oligomerization on A549 cells
- Hla-induced loss of E-cadherin expression and disruption of cell junctions (ADAM10 [2]): could be prevented; also recorded: is inhibited
- accumulation of cells and proteinaceous edema in the alveolar space (BAL cell count, protein) (C57BL/6J mice): reduced the accumulation of both cells and proteinaceous edema in the alveolar space; also recorded: reduced alveolar exudates; also recorded: prevents Hla-induced lung epithelial barrier disruption in vivo
- E-cadherin cleavage in response to Hla treatment in mice (C57BL/6J mice; ip): prevented E-cadherin cleavage in response to Hla treatment
- vascular integrity / Evans blue dye extravasation (BALB/c mice): enhanced vascular integrity, manifest by limited dye extravasation
- Hla-induced hemolysis (rabbit red cells): blunted hemolysis
- Hla-induced VE-cadherin cleavage (ADAM10 [3]): prevented VE-cadherin cleavage
- PLY-induced E-cadherin cleavage (ADAM10 [4]): prevented PLY-induced E-cadherin cleavage
- survival of lethal challenge (S. aureus Newman): all experimental animals succumbed to the lethal challenge
- appearance of illness (S. aureus Newman; 200 mg/kg): less ill in appearance
- time-to-death (S. aureus Newman; iv, 200 mg/kg): prolongation of time-to-death
- abscess size (S. aureus USA300/LAC): reduction in abscess size
- dermonecrotic skin lesions (S. aureus USA300/LAC): did not demonstrate dermonecrotic skin lesions
- skin breakdown (dermonecrosis) over the site of infection (S. aureus USA300/LAC): completely prevented skin breakdown over the site of infection
- Hla-mediated barrier disruption (ECIS) [5]: complete protection of HPAECs from Hla-mediated barrier disruption
- Hla-induced E-cadherin cleavage (ADAM10 [6]): nearly abrogated Hla-induced E-cadherin cleavage

Compound: C[C@H](CCC(=O)O)C[C@H](C)C[C@H](C)C(=O)/C=C(\O)[C@H](C)C[C@H](C)C/C=C/[C@@H](C)[C@@H](O)[C@@H](C)[C@@H](O)C[C@@H]1CC[C@@](C)([C@H]2CC[C@@](C)([C@@H](C)O)O2)O1 [Ionomycin]
- induction of ADAM10 metalloprotease activity (ADAM10 [7]): potently induces the metalloprotease activity of ADAM10
- E-cadherin cleavage induced by agent alone (ADAM10 [6]): stimulating E-cadherin cleavage; also recorded: E-cadherin CTFs were generated; also recorded: enhancing cleavage

Compound: Methyl-β-cyclodextrin
- Hla-induced metalloprotease activation (ADAM10 [8]): abrogated metalloprotease activation
- Hla-induced E-cadherin cleavage (ADAM10 [6]): abrogated metalloprotease activation and E-cadherin cleavage

Compound: N—(R)-[2-hydroxyaminocarbonyl)methyl]-4-methylpentanoyl-L-napthylalanyl-L-alanine, 2-aminoethyl amide [TAPI-1]
- Hla-induced VE-cadherin cleavage (ADAM10 [3]): prevented VE-cadherin cleavage
- barrier function after Hla (ECIS) [5]: maintenance of barrier function; also recorded: did not result in loss of barrier function
- Hla-induced E-cadherin cleavage (Western blot) (ADAM10 [6]): impaired Hla-induced E-cadherin cleavage
- surface expression of E-cadherin after Hla (immunofluorescence) (ADAM10 [6]): preserved surface expression of E-cadherin
